# Experimental data published in ChEMBL document CHEMBL3885881, “DrugMatrix”.
# Species: Rattus norvegicus
# Assay: DrugMatrix - Regimen: Daily Repeat
# Assay type: toxicity, organism-based, Sprague-Dawley
# Parameters: regimen Daily Repeat, gender Male, age 6-8 weeks
# Conditions: in vivo, po, 20 mg/kg, route oral GAVAGE, dose level Low, […]; for ABSOLUTE BASOPHIL / ABSOLUTE EOSINOPHIL / ABSOLUTE LYMPHOCYTE / ABSOLUTE MONOCYTE / ABSOLUTE SEGMENTED NEUTROPHIL / BASOPHIL / EOSINOPHIL / ERYTHROCYTE COUNT / HEMATOCRIT / HEMOGLOBIN / LEUKOCYTE COUNT / LYMPHOCYTE / MEAN CORPUSCULAR HEMOGLOBIN / MEAN CORPUSCULAR HEMOGLOBIN CONCENTRATION / MEAN CORPUSCULAR VOLUME / MONOCYTE / NEUTROPHIL / NUCLEATED RED BLOOD CELLS / PLATELET COUNT: tissue Blood; for ALANINE AMINOTRANSFERASE / ALBUMIN / ALKALINE PHOSPHATASE / ASPARTATE AMINOTRANSFERASE / BLOOD UREA NITROGEN / CARBON DIOXIDE / CHLORIDE / CHOLESTEROL / CREATINE PHOSPHOKINASE / CREATININE / GLUCOSE / LACTATE DEHYDROGENASE / LIPASE / PHOSPHORUS / POTASSIUM / SODIUM / TOTAL BILIRUBIN / TOTAL PROTEIN / URIC ACID: tissue Plasma
smiles,measurement,setting,value
CCCSc1ccc2nc(NC(=O)OC)[nH]c2c1 [ALBENDAZOLE],ABSOLUTE BASOPHIL,"72 h, time 3 day",0 CELLS/uL
same,ABSOLUTE EOSINOPHIL,"72 h, time 3 day",0 CELLS/uL
same,ABSOLUTE LYMPHOCYTE,"72 h, time 3 day",12808 CELLS/uL
same,ABSOLUTE MONOCYTE,"72 h, time 3 day",184.67 CELLS/uL
same,ABSOLUTE SEGMENTED NEUTROPHIL,"72 h, time 3 day",1574 CELLS/uL
same,BASOPHIL,"72 h, time 3 day",0%
same,EOSINOPHIL,"72 h, time 3 day",0%
same,ERYTHROCYTE COUNT,"72 h, time 3 day",5.37 x10E6/uL
same,HEMATOCRIT,"72 h, time 3 day",33.33%
same,HEMOGLOBIN,"72 h, time 3 day",13.47 G/DL
same,LEUKOCYTE COUNT,"72 h, time 3 day",14.57 x10E3/uL
same,LYMPHOCYTE,"72 h, time 3 day",88.67%
same,MEAN CORPUSCULAR HEMOGLOBIN,"72 h, time 3 day",25.17 pg
same,MEAN CORPUSCULAR HEMOGLOBIN CONCENTRATION,"72 h, time 3 day",40.47 G/DL
same,MEAN CORPUSCULAR VOLUME,"72 h, time 3 day",62.17 fL
same,MONOCYTE,"72 h, time 3 day",1.33%
same,NEUTROPHIL,"72 h, time 3 day",10%
same,NUCLEATED RED BLOOD CELLS,"72 h, time 3 day",0.33 /100WBC
same,PLATELET COUNT,"72 h, time 3 day",1157.33 x10E3/uL
same,ALANINE AMINOTRANSFERASE,"72 h, time 3 day",56.33 u/L
same,ALBUMIN,"72 h, time 3 day",3.6 G/DL
same,ALKALINE PHOSPHATASE,"72 h, time 3 day",430 u/L
same,ASPARTATE AMINOTRANSFERASE,"72 h, time 3 day",87.33 u/L
same,BLOOD UREA NITROGEN,"72 h, time 3 day",13.33 mg/dL
same,CARBON DIOXIDE,"72 h, time 3 day",24.67 mmol/L
same,CHLORIDE,"72 h, time 3 day",101 MEQ/L
same,CHOLESTEROL,"72 h, time 3 day",64 mg/dL
same,CREATINE PHOSPHOKINASE,"72 h, time 3 day",390.67 u/L
same,CREATININE,"72 h, time 3 day",0.21 mg/dL
same,GLUCOSE,"72 h, time 3 day",220.67 mg/dL
same,LACTATE DEHYDROGENASE,"72 h, time 3 day",112.33 u/L
same,LIPASE,"72 h, time 3 day",10.67 u/L
same,PHOSPHORUS,"72 h, time 3 day",12.2 mg/dL
same,POTASSIUM,"72 h, time 3 day",6.27 MEQ/L
same,SODIUM,"72 h, time 3 day",141.23 MEQ/L
same,TOTAL BILIRUBIN,"72 h, time 3 day",0.2 mg/dL
same,TOTAL PROTEIN,"72 h, time 3 day",5.2 G/DL
same,URIC ACID,"72 h, time 3 day",2.23 mg/dL
same,ABSOLUTE BASOPHIL,"120 h, time 5 day",0 CELLS/uL
same,ABSOLUTE EOSINOPHIL,"120 h, time 5 day",69.33 CELLS/uL
same,ABSOLUTE LYMPHOCYTE,"120 h, time 5 day",7738 CELLS/uL
same,ABSOLUTE MONOCYTE,"120 h, time 5 day",149.67 CELLS/uL
same,ABSOLUTE SEGMENTED NEUTROPHIL,"120 h, time 5 day",776.33 CELLS/uL
same,BASOPHIL,"120 h, time 5 day",0%
same,EOSINOPHIL,"120 h, time 5 day",0.67%
same,ERYTHROCYTE COUNT,"120 h, time 5 day",4.93 x10E6/uL
same,HEMATOCRIT,"120 h, time 5 day",31.3%
same,HEMOGLOBIN,"120 h, time 5 day",12.87 G/DL
same,LEUKOCYTE COUNT,"120 h, time 5 day",8.73 x10E3/uL
same,LYMPHOCYTE,"120 h, time 5 day",89.33%
same,MEAN CORPUSCULAR HEMOGLOBIN,"120 h, time 5 day",26.07 pg
same,MEAN CORPUSCULAR HEMOGLOBIN CONCENTRATION,"120 h, time 5 day",41.1 G/DL
same,MEAN CORPUSCULAR VOLUME,"120 h, time 5 day",63.4 fL
same,MONOCYTE,"120 h, time 5 day",1.67%
same,NEUTROPHIL,"120 h, time 5 day",8.33%
same,NUCLEATED RED BLOOD CELLS,"120 h, time 5 day",0 /100WBC
same,PLATELET COUNT,"120 h, time 5 day",1525.33 x10E3/uL
same,ALANINE AMINOTRANSFERASE,"120 h, time 5 day",53.67 u/L
same,ALBUMIN,"120 h, time 5 day",4.03 G/DL
same,ALKALINE PHOSPHATASE,"120 h, time 5 day",375.33 u/L
same,ASPARTATE AMINOTRANSFERASE,"120 h, time 5 day",79 u/L
same,BLOOD UREA NITROGEN,"120 h, time 5 day",15 mg/dL
same,CARBON DIOXIDE,"120 h, time 5 day",26 mmol/L
same,CHLORIDE,"120 h, time 5 day",102.67 MEQ/L
same,CHOLESTEROL,"120 h, time 5 day",67 mg/dL
same,CREATINE PHOSPHOKINASE,"120 h, time 5 day",225.67 u/L
same,CREATININE,"120 h, time 5 day",0.21 mg/dL
same,GLUCOSE,"120 h, time 5 day",161 mg/dL
same,LACTATE DEHYDROGENASE,"120 h, time 5 day",141 u/L
same,LIPASE,"120 h, time 5 day",11.67 u/L
same,PHOSPHORUS,"120 h, time 5 day",10.97 mg/dL
same,POTASSIUM,"120 h, time 5 day",5.64 MEQ/L
same,SODIUM,"120 h, time 5 day",141.93 MEQ/L
same,TOTAL BILIRUBIN,"120 h, time 5 day",0.1 mg/dL
same,TOTAL PROTEIN,"120 h, time 5 day",5.5 G/DL
same,URIC ACID,"120 h, time 5 day",1.37 mg/dL
